Assay results: article PMC6804212, “Chain Substituted Cannabilactones with Selectivity for the CB2 Cannabinoid Receptor” (Molecules, 2019)
Where two headings read alike, the source gives them in different places.

Assays:
hCB2 receptor [1] = target: T1, hCB2 receptor (Homo sapiens, UniProt P34972); test: cAMP assay: decrease in forskolin-stimulated cAMP in HEK293 cells stably expressing hCB2; format: cell-based; set-up: expressed in transfected cells; conditions: for classification at hCB2: forskolin-stimulated cAMP assay; for E(max): maximum inhibition of forskolin stimulated cAMP levels, as percentage of CP-55,940 response at 500 nM
Experimental: HEK293 cells stably expressing hCB2 receptors were used for the studies. The cAMP assay was carried out using PerkinElmer’s Lance ultra cAMP kit following the protocol of the manufacturer. Briefly, the assays were carried out in 384-well plates using 1000–1500 cells/well. The cells were harvested with non-enzymatic cell dissociation reagent Versene, washed once with HBSS and resuspended in the stimulation buffer. The various concentrations of the test compound (5 μL) in forskolin (2 μM final concentration) containing stimulation buffer were added to the plate followed by the cell suspension (5 μL). Cells were stimulated for 30 min at room temperature. Eu-cAMP tracer working solution (5 μL) and Ulight-anti-cAMP working solution (5 μL) were then added to the plate and incubated at room temperature for 60 min. The data were collected on a Perkin-Elmer Envision instrument. The EC50 values were determined by non-linear regression analysis using GraphPad Prism software (GraphPad Software, Inc., San Diego, CA, USA).

rat CB1 receptor = target: T2, rat CB1 receptor (Rattus norvegicus, UniProt P20272); test: Radioligand competition binding, [3H]CP-55,940, rat brain membranes
T2 construct: membrane preparations from rat brain; from tissue; host or cells: rat brain membranes
Experimental: (§1) Inhibition constant values (Ki) from the respective competition binding curves are listed in Table 1 in which our first generation cannabilactone analog AM1714 is included for comparison. The current data of AM1714 for mCB2 are slightly different when compared to those we published earlier. This is because the compound was first assayed in a different mCB2 receptor preparation, e.g., mouse spleen membrane.
(§2) Results from the competition assays were analyzed using nonlinear regression to determine the IC50 values for the ligand [59]; Ki values were calculated from the IC50 (Prism by GraphPad Software, Inc.). Each experiment was performed in triplicate and Ki values determined from three independent experiments and are expressed as the mean of the three values.

mouse CB2 receptor = target: T3, mouse CB2 receptor (Mus musculus, UniProt P47936); test: Radioligand competition binding, [3H]CP-55,940, membranes from HEK293 cells expressing mouse CB2; conditions: for selectivity for mCB2 over rCB1: from Ki values; for rCB1/mCB2: ratio of Ki values, rCB1 over mCB2
T3 construct: expressed in transfected cells; host or cells: HEK293
Experimental: as §1, §2

hCB2 receptor [2] = target: T1, hCB2 receptor; test: Radioligand competition binding, [3H]CP-55,940, membranes from HEK293 cells expressing human CB2; set-up: expressed in transfected cells; host or cells: HEK293; conditions: for greater affinity for mCB2 than for hCB2: from Ki values; for hCB2/mCB2 / rCB1/hCB2: ratio of Ki values; for hCB2/mCB2: hCB2 over mCB2; for rCB1/hCB2: rCB1 over hCB2; for Ki: read-out: Ki hCB2
Experimental: Indeed, in our original work on the cannabilactone class of compounds, we have identified species-specific variation in CB2 affinity. For this reason, the key compounds were also assayed using membranes from HEK293 cells expressing human CB2 (hCB2).
as §2

T1 sequence (P34972 whole entry): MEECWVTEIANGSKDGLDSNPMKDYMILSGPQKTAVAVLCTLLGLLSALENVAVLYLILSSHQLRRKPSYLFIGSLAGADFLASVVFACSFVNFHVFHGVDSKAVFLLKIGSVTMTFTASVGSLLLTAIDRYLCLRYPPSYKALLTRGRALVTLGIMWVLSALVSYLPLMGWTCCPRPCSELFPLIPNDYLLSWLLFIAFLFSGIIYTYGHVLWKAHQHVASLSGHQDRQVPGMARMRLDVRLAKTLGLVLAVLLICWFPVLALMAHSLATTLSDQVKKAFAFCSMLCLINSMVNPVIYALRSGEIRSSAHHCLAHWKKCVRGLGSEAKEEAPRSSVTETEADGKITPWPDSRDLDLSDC
T2 sequence (P20272 whole entry): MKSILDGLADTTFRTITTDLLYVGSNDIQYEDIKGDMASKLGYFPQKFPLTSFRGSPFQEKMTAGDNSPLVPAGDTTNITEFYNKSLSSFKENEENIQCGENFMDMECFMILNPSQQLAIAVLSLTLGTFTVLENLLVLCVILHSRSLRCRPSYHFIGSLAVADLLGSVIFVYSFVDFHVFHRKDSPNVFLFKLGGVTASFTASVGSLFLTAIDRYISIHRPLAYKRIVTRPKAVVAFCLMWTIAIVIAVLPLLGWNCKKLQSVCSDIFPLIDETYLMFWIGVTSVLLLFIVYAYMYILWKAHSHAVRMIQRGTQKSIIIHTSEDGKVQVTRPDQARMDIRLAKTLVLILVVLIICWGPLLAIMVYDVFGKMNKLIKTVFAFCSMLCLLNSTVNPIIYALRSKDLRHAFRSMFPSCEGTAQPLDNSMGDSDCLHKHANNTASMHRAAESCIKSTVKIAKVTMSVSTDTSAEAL
T3 sequence (P47936 whole entry): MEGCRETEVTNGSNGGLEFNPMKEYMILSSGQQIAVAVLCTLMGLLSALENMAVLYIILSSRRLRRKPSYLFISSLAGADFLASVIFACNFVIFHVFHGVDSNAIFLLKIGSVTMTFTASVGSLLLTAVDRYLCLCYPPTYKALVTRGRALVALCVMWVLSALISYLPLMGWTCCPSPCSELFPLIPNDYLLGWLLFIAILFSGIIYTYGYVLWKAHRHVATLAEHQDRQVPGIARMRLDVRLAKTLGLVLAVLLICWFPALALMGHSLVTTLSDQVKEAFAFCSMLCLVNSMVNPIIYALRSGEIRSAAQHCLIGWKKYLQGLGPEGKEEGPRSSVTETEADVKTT

SMILES | rCB1/mCB2 (mouse CB2 receptor) | Ki (rat CB1 receptor; read-out: Ki rCB1) [nM] | melting point [°C] | Ki (mouse CB2 receptor) [nM] | further results
CCCCCCC(C)(C)c1cc(O)c2c(c1)oc(=O)c1ccc(OC)cc12 [Compound 1a] |  |  |  |  | EC50 (hCB2 receptor [1]): 10.5 ± 2.5 nM; classification at hCB2 (hCB2 receptor [1]): agonist; E(max) (hCB2 receptor [1]): 73%
CCCCCCC(C)(C)c1cc(O)c2c(c1)oc(=O)c1ccc(O)cc12 [Compound 1b, reference compound] | 21.3 |  |  |  | Ki (rat CB1 receptor): 100 ± 24 nM; selectivity for mCB2 over rCB1 (mouse CB2 receptor): 21- to 32 fold; Ki (mouse CB2 receptor; read-out: Ki mCB2): 4.7 ± 1.8 nM; greater affinity for mCB2 than for hCB2 (hCB2 receptor [2]): 18 fold; hCB2/mCB2 (hCB2 receptor [2]): 17.7; rCB1/hCB2 (hCB2 receptor [2]): 1.2; Ki (hCB2 receptor [2]): 83.6 ± 23.2 nM; EC50 (hCB2 receptor [1]): 36.9 ± 6.8 nM; classification at hCB2 (hCB2 receptor [1]): agonist; E(max) (hCB2 receptor [1]): 77%
O=c1oc2cc(C3(CCCCBr)CCCC3)cc(O)c2c2cc(O)ccc12 [Compound 3a, 3-[1-(4-Bromobutyl)cyclopentyl]-1,9-dihydroxy-6H-dibenzo[b,d]pyran-6-one] | 18.8 | 390 ± 132 | 96 to 98 | 20.8 ± 5.9 | 
O=c1oc2cc(C3(CCCCCBr)CCCC3)cc(O)c2c2cc(O)ccc12 [Compound 3b, 3-[1-(5-Bromopentyl)cyclopentyl]-1,9-dihydroxy-6H-dibenzo[b,d]pyran-6-one] |  | 370 ± 130 |  | 16.3 ± 5.2 | 
O=c1oc2cc(C3(CCCBr)CCCC3)cc(O)c2c2cc(O)ccc12 [Compound 3c, 3-[1-(3-Bromopropyl)cyclopentyl]-1,9-dihydroxy-6H-dibenzo[b,d]pyran-6-one] |  | 405 ± 122 |  | 24.3 ± 3.9 | 
CCCCCCC1(c2cc(O)c3c(c2)oc(=O)c2ccc(O)cc23)CCCC1 [Compound 3d, 3-(1-Hexyl-cyclopentyl]-1,9-dihydroxy-6H-dibenzo[b,d]pyran-6-one] | 31.7 |  | 153 to 155 |  | Ki (rat CB1 receptor): 266 ± 58 nM; selectivity for mCB2 over rCB1 (mouse CB2 receptor): 21- to 32 fold; Ki (mouse CB2 receptor; read-out: Ki mCB2): 8.4 ± 2.5 nM; greater affinity for mCB2 than for hCB2 (hCB2 receptor [2]): 3 fold; hCB2/mCB2 (hCB2 receptor [2]): 3.3; rCB1/hCB2 (hCB2 receptor [2]): 9.5; Ki (hCB2 receptor [2]): 28 ± 9.7 nM
N#CCCCCC1(c2cc(O)c3c(c2)oc(=O)c2ccc(O)cc23)CCCC1 [Compound 3e, 3-[1-(4-Cyanobutyl)cyclopentyl]-1,9-dihydroxy-6H-dibenzo[b,d]pyran-6-one] | 25.7 | 304 ± 73 | 138 to 140 | 11.8 ± 4.1 | 
N#CCCCCCC1(c2cc(O)c3c(c2)oc(=O)c2ccc(O)cc23)CCCC1 [Compound 3f, 3-[1-(5-Cyanopentyl)cyclopentyl]-1,9-dihydroxy-6H-dibenzo[b,d]pyran-6-one] |  |  |  |  | Ki (rat CB1 receptor): 640 ± 152 nM; Ki (mouse CB2 receptor; read-out: Ki mCB2): 4.9 ± 1.2 nM; greater affinity for mCB2 than for hCB2 (hCB2 receptor [2]): 7 fold; Ki (hCB2 receptor [2]): 33.8 ± 10.4 nM; EC50 (hCB2 receptor [1]): 3.7 ± 1.5 nM; classification at hCB2 (hCB2 receptor [1]): agonist; classification at hCB2 (hCB2 receptor [1]; listed as AM4346): potent CB2 agonist; E(max) (hCB2 receptor [1]): 89%
N#CCCCC1(c2cc(O)c3c(c2)oc(=O)c2ccc(O)cc23)CCCC1 [Compound 3g, 3-[1-(3-Cyanopropyl)cyclopentyl]-1,9-dihydroxy-6H-dibenzo[b,d]pyran-6-one] | 16.2 | 290 ± 64 | 118 to 120 | 17.9 ± 5.8 | 
CC(C)N(C(=O)c1ccc(O)cc1-c1c(O)cc(C2(CCCCBr)CCCC2)cc1O)C(C)C [Compound 23a, 4′-[1-(4-Bromobutyl)cyclopentyl]-2′,5,6′-trihydroxy-N,N-diisopropyl-[1,1′-biphenyl]-2-carboxamide] | 31.3 | 702 ± 220 | 183 to 185 | 22.4 ± 4.5 | 
CC(C)N(C(=O)c1ccc(O)cc1-c1c(O)cc(C2(CCCCCBr)CCCC2)cc1O)C(C)C [Compound 23b, 4′-[1-(5-Bromopentyl)cyclopentyl]-2′,5,6′-trihydroxy-N,N-diisopropyl-[1,1′-biphenyl]-2-carboxamide] | 42.8 | 745 ± 215 | 190 to 192 | 17.4 ± 4.8 | 
CC(C)N(C(=O)c1ccc(O)cc1-c1c(O)cc(C2(CCCBr)CCCC2)cc1O)C(C)C [Compound 23c, 4′-[1-(3-Bromopropyl)cyclopentyl]-2′,5,6′-trihydroxy-N,N-diisopropyl-[1,1′-biphenyl]-2-carboxamide] | 21.8 | 229 ± 70 | 178 to 180 | 10.5 ± 3.5 | 
CCCCCCC1(c2cc(O)c(-c3cc(O)ccc3C(=O)N(C(C)C)C(C)C)c(O)c2)CCCC1 [Compound 23d, 4′-(1-Hexyl-cyclopentyl)-2′,5,6′-trihydroxy-N,N-diisopropyl-[1,1′-biphenyl]-2-carboxamide] | 59.8 | 341 ± 100 | 185 to 187 | 5.7 ± 1.5 | selectivity for mCB2 over rCB1 (mouse CB2 receptor): 60 fold; response in hCB2 cAMP assay (hCB2 receptor [1]; concentrations up to 2 μM): failed to show any responses
